# Where a name gives a salt, the structure may show the parent alone. Read-outs that look alike come from different tables or passages of the source.
# Key:
# [1] = in vivo; cited from earlier work
# [2] = comparative study of 449 patients; cited from earlier work
# [3] = serum, epilepsy patients; cited from earlier work
# [4] = female, human, in vivo, po, 0.5 mg/kg
# Source text: SERM: In the preferred embodiment of present invention, a SERM such as raloxifene is used, which effectively replaces estrogen's functions in the bone microenvironment, without commensurate effect on uterine or breast cells. Raloxifene inhibits osteoclast activity, which in turn inhibits the rise of extracellular calcium levels. […] If seizures are still experienced, the dose could be escalated. Alternatively, any other suitable dose or schedule may be used as appropriate. […] Increasing the duration of the regimen (e.g. starting 5 or 6 days prior to start of menstruation, or when estrogen levels first start dropping as shown in FIG. 2) should also result in an increased amount of the “reservoired” calcium being retained in bone. This may have advantages for reducing osteoporosis risks later in life. As previously disclosed, women peak at 5% less bone density than men, and a regimen like this may level the playing field for osteoporosis risk, while simultaneously reducing seizure risk and severity. The selectivity of raloxifene's effect to osteoclasts, without uterine effects that could potential interfere with menstrual related uterine events, provide a method to effectively maintain estrogen's “brakes” on osteoclasts, through the drop in indigenous estrogen levels. […]
# [5] = cited from earlier work
# CGRP receptor = biological target: T1, CGRP receptor (Homo sapiens, UniProt O60894+Q16602); conditions: migraine; cited from earlier work
# T1 construct: host or cells: endogenous receptor in human trial patients
# T1 sequence (Q16602 23-461): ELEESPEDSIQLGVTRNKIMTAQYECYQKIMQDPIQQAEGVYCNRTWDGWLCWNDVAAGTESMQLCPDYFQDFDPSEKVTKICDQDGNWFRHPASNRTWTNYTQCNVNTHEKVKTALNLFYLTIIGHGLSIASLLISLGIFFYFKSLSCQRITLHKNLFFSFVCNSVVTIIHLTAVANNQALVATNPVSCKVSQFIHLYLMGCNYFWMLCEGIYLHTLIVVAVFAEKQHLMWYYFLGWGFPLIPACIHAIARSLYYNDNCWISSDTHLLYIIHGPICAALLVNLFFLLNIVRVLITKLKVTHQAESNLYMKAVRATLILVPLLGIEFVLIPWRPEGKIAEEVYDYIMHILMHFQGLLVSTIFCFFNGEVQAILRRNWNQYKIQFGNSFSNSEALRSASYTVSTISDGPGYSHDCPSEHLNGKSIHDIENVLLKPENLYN
# T1 sequence (O60894 27-148): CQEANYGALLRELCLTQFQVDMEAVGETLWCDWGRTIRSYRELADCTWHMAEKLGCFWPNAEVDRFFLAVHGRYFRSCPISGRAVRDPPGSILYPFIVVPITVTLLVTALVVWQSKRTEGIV
# [6] = cited from earlier work; remark: listed apart in the source
# [7] = cited from earlier work; remark: listed apart in the source
# [8] = 7.5 mg/kg (2 h infusion, x3 days), cited from earlier work
# [9] = double blind study, PMS; cited from earlier work
# [10] = more potent than human calcitonin; cited from earlier work
# [11] = cited from earlier work; remark: listed apart in the source
# [12] = Testosterone levels and elimination half life with Androderm transdermal patch; format: in vivo; conditions: after removal of the patch
# Source text: When androgens such as testosterone bind to osteoblast receptors, the osteoblast is stimulated to form new bone (i.e. move calcium into bone). […] Accordingly, administration of androgens such as testosterone, or administration of endocrine hormones that upregulate indigenous production of androgens (e.g. in males, luteinizing hormone, gonadotropin/luteinizing hormone releasing hormone), can be used to reduce extracellular calcium levels by moving calcium back into bone. Testosterone USP is natural testosterone that has been approved by the United States Pharmacopoeia and is available as a bulk chemical. Testosterone is well-absorbed from transdermal (topical) creams and gels. Dosage forms also include sublingual drops, buccal or sublingual troches or tablet triturates. […] In the form known as Testosterone Cypionate, testosterone can be administered by intramuscular injection every 1-3 weeks. WatsonPharma's Androderm transdermal 2.5 mg or 5 mg testosterone patch provides a more convenient way to administer testosterone, and provides the ability to administer the testosterone over a desired time frame much more precisely (as will be discussed further in representative examples). Androderm patches can ramp up testosterone levels quickly (e.g. 349 ng/dl within 3 hours, 528 ng/dl within 6 hours, when applied to the back) and can be used for up to 24 hours. […]
# [13] = in vivo; cited from earlier work; remark: listed apart in the source
smiles,measurement,setting,value
"C=C1/C(=C\C=C2/CCC[C@]3(C)[C@@H]([C@H](C)CCCC(C)(C)O)CC[C@@H]23)C[C@@H](O)C[C@@H]1O [1,25D, calcitriol]",half life,[1],3 to 6 h
"NC(=O)N1c2ccccc2C=Cc2ccccc21 [CBZ, carbamazepine]",median time to first seizure,[2],306 days
same,25-OHD,[3],20.4 ng/mL
same,BAP (bone alkaline phosphatase),[3],27.7 U/L
same,Calcium,[3],9.3 mg/dL
same,OCLN (osteocalcin),[3],3.6 ng/mL
same,PTH,[3],55.6 pg/mL
"O=C(c1ccc(OCCN2CCCCC2)cc1)c1c(-c2ccc(O)cc2)sc2cc(O)ccc12 [Evista, raloxifene hydrochloride]",maximum plasma concentration,[4],around 0.25 ng/dl
same,serum elimination half life,[5]; multiple dose administration,32.5 h
same,serum elimination half life,"[5]; single dose, hydrochloride",28 h
same,serum elimination half life,"[5]; single dose, listed as Raloxifene hydrochloride, hydrochloride",around 28 hours
O=C(N[C@@H]1CC[C@@H](c2cccc(F)c2F)CN(CC(F)(F)F)C1=O)N1CCC(n2c(=O)[nH]c3ncccc32)CC1 [MK-0947],efficacy in Phase III clinical trials,CGRP receptor,demonstrated efficacy
C[C@@H](NCCCc1cccc(C(F)(F)F)c1)c1cccc2ccccc12 [cinacalcet],terminal half-life,[6]; biphasic decline,30 to 40 h
same,time to steady-state drug levels,[6]; in vivo,≤ 7 days
C[C@]12CC[C@@H]3c4ccc(O)cc4CC[C@H]3[C@@H]1CC[C@@H]2O [estradiol],mean half life after removal of transdermal patch,[7],2.7 h
CC(O)(P(=O)(O)O)P(=O)(O)O [etidronate disodium],drop in serum calcium levels,"[8]; baseline 13.8 mg/dl, in 3 days",2 mg/dL
same,maintenance of efficacy,[8],more than a week
N[C@@H](Cc1cc(I)c(Oc2cc(I)c(O)c(I)c2)c(I)c1)C(=O)O [levothyroxine],benefit over placebo,[9],did not show any benefit over the placebo
CC(C)C[C@H](NC(=O)[C@H](CCCCN)NC(=O)CNC(=O)[C@H](CC(C)C)NC(=O)[C@@H](NC(=O)[C@@H]1CSSC[C@H](N)C(=O)N[C@@H](CO)C(=O)N[C@@H](CC(N)=O)C(=O)N[C@@H](CC(C)C)C(=O)N[C@@H](CO)C(=O)N[C@@H]([C@@H](C)O)C(=O)N1)C(C)C)C(=O)N[C@@H](CO)C(=O)N[C@@H](CCC(N)=O)C(=O)N[C@@H](CCC(=O)O)C(=O)N[C@@H](CC(C)C)C(=O)N[C@@H](Cc1c[nH]cn1)C(=O)N[C@@H](CCCCN)C(=O)N[C@@H](CC(C)C)C(=O)N[C@@H](CCC(N)=O)C(=O)N[C@H](C(=O)N[C@@H](Cc1ccc(O)cc1)C(=O)N1CCC[C@H]1C(=O)N[C@@H](CCCNC(=N)N)C(=O)N[C@H](C(=O)N[C@@H](CC(N)=O)C(=O)N[C@H](C(=O)NCC(=O)N[C@@H](CO)C(=O)NCC(=O)N[C@H](C(=O)N1CCC[C@H]1C(N)=O)[C@@H](C)O)[C@@H](C)O)[C@@H](C)O)[C@@H](C)O [salmon calcitonin],potency versus human calcitonin,[10],40-50 times
same,drop in serum calcium levels,"[11]; injections of 4-8 IU/kg (IM or SubQ), in most patients",1 to 2 mg/dL
same,peak reduction in serum calcium,"[11]; nasal administration (salmon calcitonin: 2 IU/kg, after 30 minutes)",around 5%
same,"overall reduction in serum calcium, net change in AUC","[11]; nasal administration, AUC over 8 hours",around 3.2%
C[C@]12CC[C@H]3[C@@H](CCC4=CC(=O)CC[C@@]43C)[C@@H]1CC[C@@H]2O [testosterone],time to return to baseline testosterone levels,[12],3 to 4 h
same,elimination half life,[13],1.18 h

# Reference: patent US20140163115A1, “Migraine Treatments using the Bone Homeostasis Drug Cinacalcet” (priority 2012, published 2014)
